Measured values reported in patent US12643889B2, “Synthesis of novel EP4 antagonist and use in cancer and inflammation” (Wuhan Humanwell Innovative Drug Research And Development …, priority 2020, dated 2026).

Assays:
[1] = target: T1, recombinant human EP4 receptor membrane protein (Homo sapiens, UniProt P35408); experiment: Radioligand binding assay for EP4 receptor ([3H]-PGE2); details: [3H]-PGE2 1.5 nM; membrane protein 20 μg/well
T1 construct: expressed in transfected cells; host or cells: membranes of 293 cells overexpressing human EP4 receptor
T1 sequence (P35408 whole entry): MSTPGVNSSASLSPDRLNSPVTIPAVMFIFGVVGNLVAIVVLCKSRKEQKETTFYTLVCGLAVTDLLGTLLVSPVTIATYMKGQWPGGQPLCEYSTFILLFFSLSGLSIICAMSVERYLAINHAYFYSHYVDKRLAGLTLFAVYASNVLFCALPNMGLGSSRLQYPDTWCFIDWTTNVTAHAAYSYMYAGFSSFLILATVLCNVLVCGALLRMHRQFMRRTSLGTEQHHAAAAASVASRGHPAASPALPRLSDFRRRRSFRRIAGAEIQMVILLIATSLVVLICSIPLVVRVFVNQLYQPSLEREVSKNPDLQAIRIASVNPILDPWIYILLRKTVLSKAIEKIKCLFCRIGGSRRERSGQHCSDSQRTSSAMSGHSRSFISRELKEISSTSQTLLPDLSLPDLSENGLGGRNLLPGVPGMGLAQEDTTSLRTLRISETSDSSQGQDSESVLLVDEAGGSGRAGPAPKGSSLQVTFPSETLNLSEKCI
Protocol: The compounds to be tested and PGE2 were formulated as 10 mM stocks in a DMSO solvent, and then 8 concentration points of 4× working solution were serially diluted using a buffer (50 mM HBSS, 0.1% BSA, 500 mM NaCl). […] Unifilter-96 GF/C filter plate (Perkin Elmer) was soaked with 0.5% BSA, 50 μL per well, for at least 30 min at room temperature. After binding was complete, the reaction mixture was harvested through a GF/C plate using a Perkin Elmer Filtermate Harvester, followed by washing the filter plate and drying the filter plate for 1 hour at 50° C. After drying, the bottom of the filter plate wells was sealed using a Perkin Elmer Unifilter-96 sealing tape, and 50 μL of MicroScint™-20 cocktail (Perkin Elmer) was added to seal the top of the filter plate. The ^3H counts captured on the filter were read using a Perkin Elmer MicroBeta2 Reader.
The IC50 and Ki values of the compounds determined by the radioligand binding assay for EP4 receptor were calculated based on the inhibition rate of the different concentrations of the compounds.

[2] = Mouse pharmacokinetic assay; type: in vivo, male ICR mice; details: male, ICR, plasma
Protocol: (§1) In a mouse pharmacokinetic assay, male ICR mice (20 g to 25 g) were selected and fasted overnight. Three mice were selected and intragastrically administered with 5 mg/kg of the corresponding compound. The blood of the mice was collected before the administration and at 15 min, 30 min, 1 h, 2 h, 4 h, 8 h, 24 h after the administration. Another 3 mice were intravenously administered with 1 mg/kg of the corresponding compound, and the blood thereof was collected before the administration and at 15 min, 30 min, 1 h, 2 h, 4 h, 8 h, 24 h after the administration. The blood samples were centrifuged at 6800 g at 2° C. to 8° C. for 6 minutes, and plasma was collected and stored at −80° C. The plasma was taken at respective time point, mixed with 3-5 times the amount of acetonitrile containing internal standard, vortexed for 1 minute, centrifuged at 4° C. for 10 minutes at 13000 rpm, supernatant was added 3 times the amount of water, and the appropriate mixture was taken for LC-MS/MS analysis. The primary pharmacokinetic parameters were analyzed with a WinNonlin 7.0 software, with non-compartmental model.

[3] = Canine pharmacokinetic assay; type: in vivo, male Beagle dogs; details: male, Beagle, dog, plasma, canine
Protocol: as §1
In a canine pharmacokinetic assay, male Beagle dogs (8 kg to 10 Kg) were selected and fasted overnight. Three Beagle dogs were taken and intragastrically administered with 3 mg/kg of the corresponding compound. Another 3 Beagle dogs were intravenously administered with 1 mg/kg of the corresponding compound. The following operations were the same as the mouse pharmacokinetic assay.

human EP4 receptor [4] = target: T2, human EP4 receptor (Homo sapiens, UniProt P35408); experiment: Assay of calcium current inhibition on EP4 receptor (FLIPR, 293 cells); type: cell-based; set-up: expressed in transfected cells; host or cells: 293 cells; details: 293 cells overexpressing human EP4; PGE2 at EC80; FLIPR
T2 sequence (P35408 whole entry): as above
Protocol: The cells were rapidly thawed in a 37° C. water bath, centrifuged, resuspended, and counted. The cell suspensions were seeded at 20 μL/well in two 384-well plates (20,000 cells/well) and placed in an incubator (a 37° C., 5% CO2) overnight. Preparation of a 2× Fluo-4 Direct™ (Invitrogen, Cat #F10471) loading buffer: 77 mg of probenecid was added to 1 mL of a FLIPR buffer, with a concentration of 250 mM. 10 mL of FLIPR buffer and 0.2 mL of probenecid (250 mM) were added to each tube of Fluo-4 Direct™ crystals (F10471).
One of the cell plates was taken out of the incubator and the medium was removed. 20 μL of an assay buffer and 2× Fluo-4 Direct™ non-wash loading buffer were added to the 384-well cell culture plate to a final volume of 40 μL, and then the culture plate was incubated in an incubator (a 37° C., 5% CO2) for 50 minutes, and then at room temperature for 10 minutes, and then the plate was placed in the FLIPR. 10 μL of the buffer was transferred to the cell plate and the fluorescence signal was read. The agonist PGE2 was formulated as a 10 mM stock in a DMSO solvent and 10 concentration points of the 6× working solution were serially diluted using the buffer. 10 μL of the agonist PGE2 was transferred to the cell plate, the fluorescence signal was read to calculate EC80 value.
The agonist PGE2 was prepared at 6× EC80 concentration and the compound to be tested was formulated as a 10 mM stock solution in the DMSO solvent and 10 concentration points of the 6× compound working solution was serially diluted using the buffer.
Another cell plate was taken to remove media and 20 μL of the assay buffer and 2× Fluo-4 Direct™ non-wash loading buffer were added; the cell plate was incubated in a 37° C., 5% CO2 incubator for 50 minutes and room temperature for 10 minutes and then placed in the FLIPR. 10 μL of the compound working solution, DMSO, and the EP4 full antagonist were transferred to the cell plate and the fluorescence signal was read. […] Inhibition (%)=100−(test group−EP4 full antagonist group)/(DMSO group−EP4 full antagonist group)*100
Compound's IC50 value of EP4 calcium current inhibition was calculated based on the inhibition rate at different concentrations of the compound.

human EP4 receptor [5] = target: T2, human EP4 receptor; experiment: Assay for EP4 antagonistic effect (cAMP, PGE2-stimulated CHO stable cell line)
Protocol: After trypsinization, cells were resuspended in a buffer (1×HBSS, 0.1% BSA, 20 mM HEPES, and 500 μM IBMX) and 8000 cells were seeded per well in 384-well plates in a seeding volume of 15 μL. A working solution the compound with a 8× concentration was prepared with an experimental buffer, and then 2.5 μL of the working solution of the compound with 8× concentration was added to the 384-well plate, respectively, and incubated at 37° C. for 30 min. An agonist PGE2 working solution with 8× concentration of (4 nM) was prepared with the experimental buffer and 2.5 μL per well was added to the 384-well plate (the final PGE2 concentration was 0.5 nM) and incubated at 37° C. for 30 min. After the reaction was completed, the amount of cAMP in the cells was quantified according to the method in the instructions of the cAMP test kit (Perkin Elmer, Cat #TRF0263). The antagonistic effects (IC50 value) were calculated for the test compounds.

[6] = tested on: CT-26 murine colon cancer tumor model; experiment: Anti-tumor effect in CT-26 murine colon cancer tumor model in combination with radiation therapy; type: in vivo, mouse; details: 150 mg/kg intragastric once daily in combination with radiotherapy (3Gry, once on day 1); day 23; tumor weight
Protocol: In this assay, the anti-tumor effects of the control compound and the compounds prepared in Examples 1 to 43, in combination with radiation therapy, were tested in a CT-26 murine colon cancer tumor model.
After one week of adaptive feeding of mice, CT-26 cells in a log phase were resuspended in PBS, 5×10^5 CT-26 cells were inoculated subcutaneously at the right flank at 100 μL per mouse, and tumor growth was observed regularly. When the tumor grew to an average volume of 60 to 80 mm^3, the mice carrying the tumor were randomly divided into 5 groups based on the tumor volume size, each group containing 10 mice of 10. These group were a group of Control compound (150 mg/kg) in combination with radiotherapy (3Gry), a group of Compound I-2 (150 mg/kg) in combination with radiotherapy, a group of Compound I-5 (150 mg/kg) in combination with radiotherapy, a group of radiotherapy (3Gry) alone, and a group of vehicle control. The mice were intragastrically administered with the corresponding compound once daily, for 23 days in total; radiation therapy was performed for one-time on the first day of the administration. Tumor volumes and mouse body weights were measured twice a week, and tumor weights were weighed at the end of the experiment. Efficacy evaluations were performed based on relative tumor inhibition (TGI), safety evaluations were performed based on changes in animal body weight and death. Tumor volume and relative tumor inhibition were calculated as follows:
Tumor volume (TV)=½×a×b^2, where a and b are the length and width of the tumor measurement, respectively.
Relative tumor inhibition rate TGI (%)=(TWc−TWt/TWc)×100%, where TWc is the mean tumor weight of the vehicle control group and TW is the mean tumor weight of the treatment group.

[7] = Rat pharmacokinetic assay; type: in vivo, male SD rats; details: male, SD, plasma, rat
Protocol: as §1
In a rat pharmacokinetic assay, male SD rats (180 g to 240 g) were selected and fasted overnight. Three rats were intragastrically administered with 5 mg/kg of the corresponding compound. Another 3 rats were intravenously administered with 1 mg/kg of the corresponding compound. The following operations were the same as the mouse pharmacokinetic assay.

[8] = oral gavage administration 5 mg/kg
[9] = oral gavage administration 3 mg/kg
[10] = intravenous administration 1 mg/kg
[11] = intravenous administration 1 mg/kg, read-out: Vz

SMILES | IC50 [1] | Ki [1] | AUC(0-t) [2, 8] | Cmax [2, 8] | Tmax [2, 8] | half-life [2, 8] | AUC(0-t) [3, 9] | Cmax [3, 9] | Tmax [3, 9] | half-life [3, 9] | IC50 (human EP4 receptor [4]) | IC50 (human EP4 receptor [5]) | relative tumor inhibition rate TGI (%) [6] | other results
C[C@H](NC(=O)c1c(C(F)F)nn(C)c1Oc1csc(C(F)(F)F)c1)c1ccc(C(=O)O)cc1 [Compound I-42, (S)-4-(1-(3-(difluoromethyl)-1-methyl-5-((5-(trifluoromethyl)thiophen-3-yl)oxy)-1H-pyrazole-4-carboxamido)ethyl)benzoic Acid] | 13 nM | 7.3 nM | 2.44 µg·h/mL | 0.57 µg/mL | 0.33 h | 23.2 h | 7.19 µg·h/mL | 4.85 µg/mL | 0.25 h | 8.35 h | 15 nM | 8.6 nM |  | 
CCc1cc(Oc2c(C(=O)N[C@@H](C)c3ccc(C(=O)O)cc3)c(C(F)F)nn2C)ccc1F [Compound I-2, (S)-4-(1-(3-(difluoromethyl)-5-(3-ethyl-4-fluorophenoxy)-1-methyl-1H-pyrazole-4-carboxamido)ethyl)benzoic Acid] | 5.5 nM | 3 nM | 2.14 µg·h/mL | 1.84 µg/mL | 0.33 h | 15.7 h |  |  |  |  | 7.4 nM | 1.9 nM | 63% | 
CCc1cccc(Oc2c(C(=O)N[C@@H](C)c3ccc(C(=O)O)cc3)c(C(F)F)nn2C)c1 [Compound I-1, (S)-4-(1-(3-(difluoromethyl)-5-(3-ethylphenoxy)-1-methyl-1H-pyrazole-4-carboxamido)ethyl)benzoic Acid] | 16 nM | 8.9 nM | 2.14 µg·h/mL | 1.11 µg/mL | 0.33 h | 4.33 h |  |  |  |  | 15 nM | 3.7 nM |  | 
C[C@H](NC(=O)c1c(C(F)F)nn(C)c1Oc1cccc(CC(F)(F)F)c1)c1ccc(C(=O)O)cc1 [Compound I-6, (S)-4-(1-(3-(difluoromethyl)-1-methyl-5-(3-(2,2,2-trifluoroethyl)phenoxy)-1H-pyrazole-4-carboxamido)ethyl)benzoic Acid] | 11 nM | 5.8 nM | 4.44 µg·h/mL | 1.28 µg/mL | 0.42 h | 7.22 h |  |  |  |  | 8 nM | 8.2 nM |  | 
C[C@H](NC(=O)c1c(C(F)F)nn(C)c1Oc1cccc(C(F)(F)F)c1)c1ccc(C(=O)O)cc1 [Control Compound, reference compound] |  |  | 1.77 µg·h/mL | 0.792 µg/mL | 0.25 h | 30.9 h | 6.8 µg·h/mL | 1.36 µg/mL | 1 h | 18.6 h |  |  | 54% | AUC(0-t) [2, 10]: 0.974 µg·h/mL; clearance [2, 10]: 0.88 L/h/kg; half-life [2, 10]: 6.64 h; Vd [2, 11]: 8.38 L/kg; AUC(0-t) [7, 10]: 1.43 µg·h/mL; clearance [7, 10]: 0.61 L/h/kg; half-life [7, 10]: 10.9 h; Vd [7, 11]: 9.55 L/kg; AUC(0-t) [7, 8]: 6.85 µg·h/mL; Cmax [7, 8]: 1.1 µg/mL; Tmax [7, 8]: 0.5 h; half-life [7, 8]: 12.7 h; AUC(0-t) [3, 10]: 3.73 µg·h/mL; clearance [3, 10]: 0.24 L/h/kg; half-life [3, 10]: 9.36 h; Vd [3, 11]: 3.21 L/kg
C[C@H](NC(=O)c1c(C(F)F)nn(C)c1Sc1cccc(C(F)(F)F)c1)c1ccc(C(=O)O)cc1 [Compound I-35, (S)-4-(1-(3-(difluoromethyl)-1-methyl-5-((3-(trifluoromethyl)phenyl)thio)-1H-pyrazole-4-carboxamido)ethyl)benzoic Acid] | 28 nM | 15 nM | 3.06 µg·h/mL | 1.04 µg/mL | 0.33 h | 7.12 h |  |  |  |  | 6 nM | 6.6 nM |  | 
